The source made the active and inactive calls.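 Rule for the calls: active = fitted curve reaches 40% activation at a concentration no higher than the top valid tested dose; inconclusive = flat fit between 30% and 70% activation, or poor fit; inactive = uptake decrease, flat fit within 30% of zero, the rest.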
target: Scavenger receptor class B member 1 (Mus musculus) (UniProt Q61009); assay: activators of SR-BI-mediated HDL uptake, dose response, cell-based, ldlA[mSR-BI] CHO, DiI fluorescence, cherry-pick (AID 602191); conditions: ldlA[mSR-BI] CHO cells, 3 h, at 35 µM (top of the series);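 note: cell fluorescence from internalized DiI-labeled HDL after washing; 0% = median of DMSO wells and 100% = twice the DMSO signal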
Sequence (Q61009 whole entry, looked up): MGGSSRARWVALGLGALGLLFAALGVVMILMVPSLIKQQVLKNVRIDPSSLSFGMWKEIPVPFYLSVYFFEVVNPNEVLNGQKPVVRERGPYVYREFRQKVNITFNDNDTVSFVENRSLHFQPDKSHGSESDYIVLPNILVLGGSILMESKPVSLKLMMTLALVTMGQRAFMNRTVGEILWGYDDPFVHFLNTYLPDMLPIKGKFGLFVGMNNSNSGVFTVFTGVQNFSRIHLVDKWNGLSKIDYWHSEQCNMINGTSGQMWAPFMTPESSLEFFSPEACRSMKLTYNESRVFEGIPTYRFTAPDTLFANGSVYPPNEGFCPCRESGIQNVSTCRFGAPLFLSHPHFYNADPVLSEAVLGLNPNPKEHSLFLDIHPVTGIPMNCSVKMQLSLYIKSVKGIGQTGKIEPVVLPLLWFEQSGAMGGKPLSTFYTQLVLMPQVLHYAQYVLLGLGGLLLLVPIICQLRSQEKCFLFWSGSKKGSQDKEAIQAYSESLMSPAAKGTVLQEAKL

Activation (HDL uptake increase), inactive:
O=C(CCNC(=O)c1ccccc1Cl)NCC(c1ccc(F)cc1)N1CCOCC1 (stereo unspecified) -2.65%, CN(CC(=O)Nc1cccc(F)c1)C(=O)C1CC(=O)N(CCc2ccccc2)C1 (stereo unspecified) -13.2%, COc1ccccc1NC(=O)CCN1CCCCCC1 -12.4%, COC(=O)CNC(=O)COC(=O)c1cc(Cl)cc(Cl)c1N -8.63%, COc1ccc2c(c1)C(C)(CCN)C(=O)N2C (stereo unspecified) -0.472%, COc1ccc2cnnc(SCC(=O)Nc3ccc(C(C)=O)cc3)c2c1OC -18.2%, Cc1ccc(CNC(=O)CCNC(=O)c2ccc(Br)o2)cc1 -10.8%, CCOc1ccc(CNC(=O)CCS(=O)(=O)c2ccc3c(c2)oc(=O)n3C)cc1 8.83%, COc1ccc(N2CCN(C(=O)NC(=O)c3ccc(Cl)cc3)CC2)cc1 -6.64%, NC(=O)C1CCN(C(=O)c2ccc(NS(=O)(=O)c3ccc(F)c(F)c3)cc2)CC1 -2.55%, COc1cccc(OCc2cc(C(=O)NC3CCOCC3)no2)c1 -16.2%
